# Reference: patent publication US20050014280A1, “In vitro method for determining drug permeability using immobilized artificial membrane chromatography” (priority 2003, published 2005)
# Read-outs that look alike come from different tables or passages of the source.
# Assays:
# [1] = Caco-2 cell permeability assay (published Pm values); type: in vitro ADME; conditions: human
# Protocol: Drug permeability assays using Caco-2 cells are currently widely used. Caco-2 cells are human colon adenocarcinoma cells that differentiate in culture to resemble intestinal epithelial cells.
# The inventors used 21 reference compounds having a single positive charge at the pH at which the chromatography was performed, each having a published known permeability value, Pm, as determined by a Caco-2 cell assay by the various methods set out in references 1-7, below. The conditions used to determine the Caco-2 Pm values were generally similar in the cited references, although certain conditions varied between assays. Generally, the assays were performed at pH 7.4, with the exception of procaine and sumatriptan, for which the pH was 5.5 and 6.5, respectively. Therefore, for the experiments set out below, the pH of the mobile phase was 7.4 for all compounds except procaine (pH 5.5) and sumatriptan (6.5).
# [2] = Immobilized artificial membrane (IAM) HPLC capacity factor; type: physicochemical; conditions: 37° C.; for k′IAM (capacity factor): 1.0 ml/min, from average of 3 runs
# Protocol: Sample Preparation: Between 3 and 10 mg of each sample was dissolved in a solution of 10% methanol, 90% water in preparation for injection onto the column.
# HPLC Conditions: A Regis IAM.PC.DD2 column (30 mm×4.6 mm, 12 μm) was used, run at 37° C. at a flow rate of 1.0 ml/min. […] Elution of reference compounds was detected by ultraviolet absorbance at 210 nm.
# Calculation of k′: Sodium nitrate was injected onto the column and the elution time was measured in order to determine the time for the void volume, t0, to pass through the column. Each reference compound was then injected onto the column and retention time, tR was recorded by detecting elution by measuring UV absorbance at 210 nm. The capacity factor, k′, was calculated by determining the adjusted retention time and dividing by the time for void volume elution, according to the formula k′=(tR−t0)/t0.
# Each reference compound was tested three times and an average retention time was used.
# Caco-2 cells = conditions: cited from earlier work
# [3] = mobile phase buffer pH 6.5 / 15% acetonitrile
# [4] = Caco 2 donor pH 7.4, log of Pm in 10^−6 cm/s, read-out: Pm (converted)
# [5] = mobile phase 85% 0.05 M ammonium phosphate pH 7.4 / 15% acetonitrile
# [6] = mobile phase buffer pH 7.4 / 15% acetonitrile
# [7] = mobile phase buffer pH 5.5 / 15% acetonitrile
Structure (SMILES),"k′IAM (capacity factor) [2, 5]","logk′IAM [2, 6]",Pm (Caco-2 cells; Caco 2 donor pH 7.4),"Pm of Caco-2 Assay (Caco-2 cells; published Caco-2 assay, pH 7.4)",also measured
CNS(=O)(=O)Cc1ccc2[nH]cc(CCN(C)C)c2c1 [Sumatriptan],–,–,–,–,"Papp ([1]; Caco 2 donor pH 6.5, log of Pm in 10^−6 cm/s, read-out: Pm (converted)): 30 nm/s; logk′IAM [2, 3]: −0.077; k′IAM (capacity factor) [2, 3]: 0.837; Pm (Caco-2 cells; Caco 2 donor pH 6.5): 3 10^−6 cm/s; Pm of Caco-2 Assay (Caco-2 cells; published Caco-2 assay, pH 6.5): 3 10^−6 cm/s"
C=CCc1ccccc1OCC(O)CNC(C)C (stereo not shown) [Alprenolol],19.190,1.283,25.3 10^−6 cm/s,25.3 +/− 10^−6 cm/s,"Papp [1, 4]: 253 nm/s"
CC(C)NCC(O)COc1cccc2ccccc12 (stereo not shown) [Propranolol],31.148,1.493,32.5 10^−6 cm/s,–,"Papp ([1]; Caco-2, pH 7.4): 325 nm/s; Pm of Caco-2 Assay (Caco-2 cells; Caco-2, pH 7.4): 1.94 +/− 10^−6 cm/s"
CN/C(=C\[N+](=O)[O-])NCCSCc1ccc(CN(C)C)o1 [Ranitidine],1.232,0.091,0.49 10^−6 cm/s,0.49 +/− 10^−6 cm/s,"Papp [1, 4]: 4.9 nm/s"
CCN(CC)CCOC(=O)c1ccc(N)cc1 [Procaine],–,–,–,–,"Papp ([1]; Caco 2 donor pH 5.5, log of Pm in 10^−6 cm/s, read-out: Pm (converted)): 19.4 nm/s; logk′IAM [2, 7]: −0.368; k′IAM (capacity factor) [2, 7]: 0.428; Pm (Caco-2 cells; Caco 2 donor pH 5.5): 1.94 10^−6 cm/s; Pm of Caco-2 Assay (Caco-2 cells; published Caco-2 assay, pH 5.5): 1.94 +/− 10^−6 cm/s"
CN(C)CCCN1c2ccccc2CCc2ccccc21 [Imipramine],91.053,1.959,–,–,–
CCN1CCCC1CNC(=O)c1cc(S(N)(=O)=O)ccc1OC (stereo not shown) [Sulpiride],1.804,0.256,–,–,–
COCCc1ccc(OCC(O)CNC(C)C)cc1 (stereo not shown) [Metoprolol],3.600,0.556,23.7 10^−6 cm/s,23.7 +/− 10^−6 cm/s,"Papp ([1]; Caco-2, pH 7.4): 237 nm/s"
Clc1cccc(Cl)c1N=C1NCCN1 [Clonidine],3.841,0.584,21.8 10^−6 cm/s,21.8 +/− 10^−6 cm/s,"Papp ([1]; Caco-2, pH 7.4): 218 nm/s"
CC(C)(C)NCC(O)COc1cccc2c1CC(O)C(O)C2 (stereo not shown) [Nadolol],1.717,0.235,3.88 10^−6 cm/s,3.88 +/− 10^−6 cm/s,"Papp [1, 4]: 38.8 nm/s"
CC(C)(C)NCC(O)c1cc(O)cc(O)c1 (stereo not shown) [Terbutaline],1.276,0.106,1.4 10^−6 cm/s,1.4 +/− 10^−6 cm/s,"Papp [1, 4]: 14 nm/s"
CC(C)NCC(O)COc1cccc2[nH]ccc12 (stereo not shown) [Pindolol],4.712,0.673,16.7 10^−6 cm/s,16.7 +/− 10^−6 cm/s,"Papp ([1]; Caco-2, pH 7.4): 167 nm/s"
CC(CCc1ccccc1)NCC(O)c1ccc(O)c(C(N)=O)c1 (stereo not shown) [Labetalol],12.940,1.112,–,–,–
COc1ccc([C@@H]2Sc3ccccc3N(CCN(C)C)C(=O)[C@@H]2OC(C)=O)cc1 [Diltiazem],24.145,1.383,–,–,–
